From patent publication US12552757B2, “NRF2-activating compound” (SENJU PHARMACEUTICAL CO., LTD., priority 2019, dated 2026)

What was measured:
NRF2 = test: Measurement 2 of Nrf2 activating action (reporter assay) in HCE-T/ARE-Luc cells; format: cell-based; settings: 50% activation concentration, culture for 24 hours
Description: The NRF2 activating action of the compounds on cells was measured by a reporter gene assay. pGL4.37[luc2P/ARE/Hygro](Promega) was introduced into HCE-T cells using FuGENE HD. Cells that acquired drug resistance as a result of transduction were screened by culture in the presence of 50 μg/mL hygromycin, and a clone strain, HCE-T/ARE-Luc, was established.
HCE-T/ARE-Luc was cultured using DMEM/F12, 10 ng/mL hEGF, 5 μg/mL insulin, and 5% FBS. Phenol red-free DMEM/F12 was used as the assay medium.
HCE-T/ARE-Luc was seeded in a 96-well polystyrene microplate (FALCON) with 10000 cells per well. The cells were incubated in a CO: incubator at 37° C. for 16 hours to allow for cell adhesion. The test substance was dissolved in dimethylsulfoxide to prepare a solution at a concentration 1000 times higher than the test concentration. The test substance diluted 1000-fold in the assay medium was added, followed by culture for 24 hours. When measuring the activity of the reporter, the medium containing the test substance was removed, and then a new medium and a substrate of ONE-GloEX Luciferase Assay System (Promega) were added. The plate was shaken for 1 minute and then allowed to stand at ordinary temperature for 10 minutes, and luminescence was detected using the GloMax Discover System.
The 50% activation concentration of each test substance was calculated by creating a calibration curve between two concentrations across the luminescence intensity of 50%.

[1] = Measurement of metabolic stability in human liver microsomes; format: in vitro ADME; settings: residual ratio of test compound after 30 minutes at 37° C. with human liver microsome, LC/MS/MS
Description: 1 mmol/L DMSO solutions of the compounds produced in the Examples were prepared. Each of the 1 mmol/L DMSO solutions was diluted with acetonitrile to 10 μmol/L, and then diluted with a 6.5 mmol/L Q-NADPH solution to 200 nmol/L. 50 μL of each solution was added to the reaction group and the non-reaction group. 50 μL of a 0.2 mg protein/mL human liver microsome (Mixed Gender, Pool of 50 livers; XenoTech, LLC) solution was added to the reaction group, followed by incubation at 37° C. for 30 minutes with shaking. After 400 μL of methanol was added to the non-reaction group, 50 μL of a 0.2 mg protein/mL human liver microsome solution was added to adjust the formulation. After incubation in the reaction group, 400 μL of methanol was added to stop the reaction. The samples of the reaction group and non-reaction group were allowed to stand at −20° C. for about 30 minutes, followed by centrifugation at 4° C. at 3000 rpm for about 10 minutes. The supernatant was analyzed using LC/MS/MS, and the residual ratio of the test compound was calculated from the peak area value of the test compound using the following formula. The measurement was carried out using the following devices: HPLC system: LC-20A-Series High Performance Liquid Chromatograph (Shimadzu Corporation) and mass spectrometer: API 4000 (AB Sciex Pte. Ltd.), or using equivalent devices. Residual ratio (%)=(peak area value of test compound in reaction group/peak area value of test compound in non-reaction group)×100 Results

[2] = molecular target: T1, binding between NRF2 and KEAP1 (Homo sapiens, UniProt Q14145); test: Measurement 1 of Nrf2 activating action (binding assay): BRET assay of inhibition of the binding between NRF2 and KEAP1; settings: 50% binding inhibitory concentration, NanoLuc-NRF2 / KEAP1-HaloTag cell lysates
T1 construct: expressed in transfected cells; host or cells: HCE-T cells; each protein was expressed separately, and the two cell lysates were mixed in the well
Description: Compounds 1 to 53 produced in the Examples were used as test substances.
The inhibitory activity of each compound on the binding between NRF2 and KEAP1 was measured by bioluminescence resonance energy transfer (BRET) assay. A plasmid having human NRF2 (Original Clone ID: ha01449s1) sequence fused with NanoLuc (19 kDa, Promega) at the N-terminal was transduced into HCE-T cells using FuGENE HD (Promega). 48 hours after transduction, the cell lysate was collected and used as an NRF2-expressing cell lysate. A plasmid having human KEAP1 (Original Clone ID: cs00328) sequence fused with HaloTag (33 kDa, Promega) at the C-terminal was transduced into HCE-T cells using FuGENE HD (Promega). After 24 hours, HaloTag Nano BRET 618 Ligand (Promega) was added to the medium. The cell lysate cultured for 24 hours after the addition was used as a KEAP1-expressing cell lysate.
The NRF2-expressing cell lysate and the KEAP1-expressing cell lysate were adjusted so that the luminescence and fluorescence intensities per well were constant. Tables 1 and 2 show the formulation of each reaction solution.
Each test substance at a concentration 100 times higher than the test concentration was dissolved in dimethylsulfoxide for adjustment. 49 μL of KEAP1 solution was added to a 96-well polystyrene microplate (FALCON) to which 1 μL of each test substance solution was added, followed by incubation for 15 minutes. Then, 50 μL of NRF2 solution was added to the above solution, followed by incubation for 1 hour. To measure the binding between NRF2 and KEAP1, NanoBRET Nano-Glo Substrate (Promega) diluted with Opti-Mem (Thermo Fisher Scientific) was added, followed by shaking for 30 seconds. Then, luminescence and fluorescence were measured using the GloMax Discover System (Promega). A 495-nm short pass filter and a 600-nm long pass filter were respectively used to measure donor and acceptor emission values. A value obtained by dividing the acceptor emission value by the donor emission value was regarded as BRET value. A BRET value when the compound was not added, and a BRET value when the KEAP1 solution was not added were respectively used as binding rates of 100% and 0%, and the binding rate when the compound was added was calculated. Further, using this binding rate, the 50% binding inhibitory activity concentration (IC50) was calculated from the following formula: IC50(M)=10^(LOG(A/B)×(50−C)/(D−C)+LOG(B)) • A: higher concentration out of 2 close concentrations across the inhibition rate of 50% • B: lower concentration out of 2 close concentrations across the inhibition rate of 50% • C: inhibition rate at B • D: inhibition rate at A

T1 sequence (Q14145 whole entry): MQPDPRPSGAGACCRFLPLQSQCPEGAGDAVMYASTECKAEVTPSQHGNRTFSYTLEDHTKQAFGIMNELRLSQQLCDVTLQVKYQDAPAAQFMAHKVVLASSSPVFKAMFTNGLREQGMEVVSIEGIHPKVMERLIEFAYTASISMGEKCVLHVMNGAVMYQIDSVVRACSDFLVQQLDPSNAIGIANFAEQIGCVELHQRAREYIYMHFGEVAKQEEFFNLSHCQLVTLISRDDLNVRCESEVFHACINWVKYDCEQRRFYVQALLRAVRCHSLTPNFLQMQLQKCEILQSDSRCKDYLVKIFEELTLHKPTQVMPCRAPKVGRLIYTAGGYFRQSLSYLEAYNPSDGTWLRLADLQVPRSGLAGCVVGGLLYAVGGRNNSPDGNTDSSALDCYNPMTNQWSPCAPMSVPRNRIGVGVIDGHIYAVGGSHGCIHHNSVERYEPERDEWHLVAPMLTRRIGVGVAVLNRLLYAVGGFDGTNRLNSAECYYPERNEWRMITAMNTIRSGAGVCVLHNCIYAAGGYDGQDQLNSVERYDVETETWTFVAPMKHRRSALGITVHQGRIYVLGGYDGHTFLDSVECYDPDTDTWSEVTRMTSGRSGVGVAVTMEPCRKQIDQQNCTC

| Compound | EC50 (NRF2) [nM] | Metabolic stability* [1] [%] | IC50 [2] [nM] |
| --- | --- | --- | --- |
| CC[C@@H]1CN(Cc2cc(C(c3ccc(C(C)=O)s3)C(C)C(=O)O)ccc2C)S(=O)(=O)c2ccccc2O1 (stereo partly drawn) [Compound 1, 3-(5-acetylthiophen-2-yl)-3-(3-{[(R)-4-ethyl-1,1-dioxide-3,4-dihydro-2H-benzo[b][1,4,5]oxathiazepin-2-yl]methyl}-4-methylphenyl)-2-methylpropanoic acid] | 9.19 | 37 | – |
| CC[C@@H]1CN(Cc2cc(C(c3cc(C)c(C(C)=O)s3)C(C)C(=O)O)ccc2C)S(=O)(=O)c2ccccc2O1 (stereo partly drawn) [Compound 2, 3-(5-acetyl-4-methylthiophen-2-yl)-3-(3-{[(R)-4-ethyl-1,1-dioxide-3,4-dihydro-2H-benzo[b][1,4,5]oxathiazepin-2-yl]methyl}-4-methylphenyl)-2-methylpropanoic acid] | 9 | 21 | – |
| CC[C@@H]1CN(Cc2cc(C(c3cc(C(C)=O)cs3)C(C)C(=O)O)ccc2C)S(=O)(=O)c2ccccc2O1 (stereo partly drawn) [Compound 3, 3-(4-acetylthiophen-2-yl)-3-(3-{[(R)-4-ethyl-1,1-dioxide-3,4-dihydro-2H-benzo[b][1,4,5]oxathiazepin-2-yl]methyl}-4-methylphenyl)-2-methylpropanoic acid] | 6.81 | 51 | – |
| CC[C@@H]1CN(Cc2cc(C(c3cc(OC)c(C(C)=O)s3)C(C)(C)C(=O)O)ccc2C)S(=O)(=O)c2ccccc2O1 (stereo partly drawn) [Compound 4, 3-(5-acetyl-4-methoxythiophen-2-yl)-3-(3-{[(R)-4-ethyl-1,1-dioxide-3,4-dihydro-2H-benzo[b][1,4,5]oxathiazepin-2-yl]methyl}-4-methylphenyl)-2,2-dimethylpropanoic acid] | 7.17 | 48 | – |
| CC(=O)c1ccc(C(c2ccc(C)c(CN3CC(CCOCc4ccccc4)Oc4ccccc4S3(=O)=O)c2)C(C)C(=O)O)s1 (stereo not shown) [Compound 13, 3-(5-acetylthiophen-2-yl)-3-[3-({4-[2-(benzyloxy)ethyl]-1,1-dioxide-3,4-dihydro-2H-benzo[b][1,4,5]oxathiazepin-2-yl}methyl)-4-methylphenyl]-2-methylpropanoic acid] | 6.71 | 2 | – |
| CC[C@@H]1CN(Cc2cc(C(c3ccc(C(C)=O)s3)C(C)C(=O)O)ccc2C)S(=O)(=O)c2cnccc2O1 (stereo partly drawn) [Compound 16, 3-(5-acetylthiophen-2-yl)-3-(3-{[(R)-4-ethyl-1,1-dioxide-3,4-dihydro-2H-pyrido[4,3-b][1,4,5]oxathiazepin-2-yl]methyl}-4-methylphenyl)-2-methylpropanoic acid] | 3.57 | 51 | – |
| CC[C@@H]1CN(Cc2cc(C(CC(=O)O)c3nc(C)c(C(C)=O)s3)ccc2C)S(=O)(=O)c2ccccc2O1 (stereo partly drawn) [Compound 41, 3-(5-acetyl-4-methylthiazol-2-yl)-3-(3-[{(R)-4-ethyl-1,1-dioxide-3,4-dihydro-2H-benzo[b][1,4,5]oxathiazepin-2-yl]methyl}-4-methylphenyl) propanoic acid] | – | 65 | 3.3 |
| CC[C@@H]1CN(Cc2cc(C(c3ccc(C(C)=O)s3)C(C)(C)C(=O)O)ccc2C)S(=O)(=O)c2cnccc2O1 (stereo partly drawn) [Compound 48, 3-(5-acetylthiophen-2-yl)-3-(3-{[(R)-4-ethyl-1,1-dioxide-3,4-dihydro-2H-pyrido[4,3-b][1,4,5]oxathiazepin-2-yl]methyl}-4-methylphenyl)-2,2-dimethylpropanoic acid] | 3.67 | 56 | – |
| CC[C@@H]1CN(Cc2cc(C(c3cc(F)c(C(C)=O)s3)C(C)(C)C(=O)O)ccc2C)S(=O)(=O)c2cnccc2O1 (stereo partly drawn) [Compound 49, 3-(5-acetyl-4-fluorothiophen-2-yl)-3-(3-{[(R)-4-ethyl-1,1-dioxide-3,4-dihydro-2H-pyrido[4,3-b][1,4,5]oxathiazepin-2-yl]methyl}-4-methylphenyl)-2,2-dimethylpropanoic acid] | 7.76 | 44 | – |
| CC[C@@H]1CN(Cc2cc(C(c3cc(OC)c(C(C)=O)s3)C(C)(C)C(=O)O)ccc2C)S(=O)(=O)c2cnccc2O1 (stereo partly drawn) [Compound 50, 3-(5-acetyl-4-methoxythiophen-2-yl)-3-(3-{[(R)-4-ethyl-1,1-dioxide-3,4-dihydro-2H-pyrido[4,3-b][1,4,5]oxathiazepin-2-yl]methyl}-4-methylphenyl)-2,2-dimethylpropanoic acid] | 2.98 | 48 | – |
| CC[C@@H]1CN(Cc2cc(C(c3cc(OC)c(C(C)=O)s3)C(C)C(=O)O)ccc2C)S(=O)(=O)c2cnccc2O1 (stereo partly drawn) [Compound 51, 3-(5-acetyl-4-methoxythiophen-2-yl)-3-(3-{[(R)-4-ethyl-1,1-dioxide-3,4-dihydro-2H-pyrido[4,3-b][1,4,5]oxathiazepin-2-yl]methyl}-4-methylphenyl)-2-methylpropanoic acid] | 7.47 | 50 | – |
